The structures appear in SMILES notation.

The record followed here is paper PMC9181915, “Synthesis and Anti-Neuroinflammatory Activity of 1,7-diphenyl-1,4-heptadien-3-ones in LPS-Stimulated BV2 Microglia Via Inhibiting NF-κB/MAPK Signaling Pathways” (Molecules, 2022).

Series [1] deals with IL-6. As to the kind of experiment: LPS-induced IL-6 release in BV2 cells (ELISA). Type of series: cell-based, mouse. To be noted: 3 µM, 1 h pretreatment, LPS 1 μg/mL 24 h, vs. LPS alone. As for the experimental part: (§1) BV2 microglia cells were seeded at 1 × 10^5 cells/well in a 24-well microplate and incubated overnight. […] CU-19, CU-21 and LPS were configured with DMEM medium (2% FBS). According to the protocol of the manufacturer, supernatant was harvested at the 24th hour for the assay of IL-6, TNF-α and PGE-2 with ELISA kits (Absin Shanghai, China). Briefly, 100 μL of biotinylated antibody reagent and the culture supernatant were added to anti-mouse IL-6, TNF-α and PGE-2-precoated 96-well plates, and the plates were incubated for 2.5 h at room temperature. The plate was washed with a washing buffer and subsequently incubated with 100 μL of the streptavidin–HRP solution for 20 min at room temperature. The plate was washed and incubated with 100 μL of TMB substrate solution for 20 min at room temperature in the dark. The reaction was stopped by adding 50 μL of stop solution, and then the absorbance was measured at 450 nm by a plate reader. The average value was substituted into the standard curve to obtain the […] concentration.
Background: In an ELISA, binding on a coated surface is turned into a signal by an enzyme label.

In series [2] the test system is NF-κB. Briefly: LPS-induced NF-κB nuclear translocation in BV2 cells (immunofluorescence). In kind it is cell-based. To be noted: 3 μM with LPS, 24 h. The protocol:
CU-19, CU-21 and LPS were configured with DMEM medium (2% FBS). After 24 h of treatment, cells were fixed with 4% paraformaldehyde for 18 min and washed three times with PBS (5 min per wash). The fixed cells were then permeabilized in […] for 15 min and washed three times with PBS (5 min per wash). Nonspecific binding sites were blocked with 5% goat serum for 30 min. These cells were then incubated with anti-NF-κB antibody at a dilution of 1:400 overnight at 4 °C. After washing with PBS three times, cells were incubated with fluorescent-conjugated secondary antibody (1:150) for 1 h, and counterstained with DAPI (1:50) at room temperature for 15 min in the dark. Cells were then washed and imaged via confocal microscopy.

Series [3] deals with iNOS. As to the kind of experiment: LPS-induced iNOS expression in BV2 cells (Western blot). In kind it is cell-based. To be noted: 3 μM, 1 h pretreatment, LPS 1 μg/mL 24 h. The protocol:
(§2) CU-19, CU-21 and LPS were configured with DMEM medium (2% FBS). The cells were collected and washed three times with ice-cold PBS. The lysate (containing 1% protease inhibitor and phosphatase inhibitor) was added to the collected cells for suspension, and the cells were lysed by ultrasonic crusher. Then the cell lysates were centrifuged (14,000 rpm, 10 min, 4 °C) […] and collect the supernatant. Aliquots of the lysates were separated on 10% sodium dodecyl sulphate (SDS)-polyacrylamide gel electrophoresis (PAGE) and then electro blotted onto a polyvinylidene difluoride (PVDF) membrane. The blots were blocked with 5% (w/v) nonfat dry milk for 2 h at room temperature, followed by incubation with specific primary antibodies at 4 °C overnight. Blots were washed with PBST and incubated with secondary antibody for 2 h, after which an ECL reagent was used for chemiluminescent detection.
Background: A western blot detects proteins with antibodies after separation by electrophoresis.

In series [4] the test system is JNK. Briefly: LPS-induced JNK phosphorylation in BV2 cells (Western blot). Type of series: cell-based. To be noted: 3 μM, 1 h pretreatment, LPS 1 μg/mL 24 h. As for the experimental part: as §2
Series [5] can be described thus: In vivo pharmacokinetic study in rats. Set-up: species or system Sprague–Dawley male rats. To be noted: for AUC(0-inf) / AUC(0-t) / Cmax / half-life / MRT last / MRT inf: male, Sprague-Dawley, rat plasma, mean ± SD, n = 4; for AUC(0-inf) / AUC(0-t) / Cmax / half-life / MRT last / MRT inf / Increase of T1/2 in comparison with that of CU: single intravenous dose 20 mg/kg; for MRT last: read-out: MRT (0-t) (converted); for MRT inf: read-out: MRT (0-∞) (converted); for Metabolites detected in plasma by HPLC: rat plasma after intravenous 20 mg/kg, chromatograms at 5, 10, 20 min (Figures S1–S9); for Increase of T1/2 in comparison with that of CU: rat. The protocol:
After a single intravenous dose of 20 mg/kg, 0.5 mL of blood was obtained from the fossa orbitalis veniplex of rats at 5, 10, 20, 30, 45, 60, 120, 180 and 240 min. HPLC was used to determine the concentration of each compound in plasma and the DAS software was used for the noncompartmental pharmacokinetic analysis of the plasma concentration–time data.
Sprague–Dawley male rats, 200–240 g, were housed in cages in an airconditioned room with light dark cycle of 12 h before the experiment started. The animals were fasted for 12 h with water ad libitum. […] The administration volume was 6 mL per kg of body weight. The compounds were dissolved in PEG400 (10% of the administration volume) and water (90% of the administration volume) and sonicated for 30 min. After tail vein injection administration at a dose of 20 mg/kg, 0.5 mL blood was obtained from fossa orbitalis veniplex of rats at 5, 10, 20, 30, 45, 60, 120, 180 and 240 min. Whole blood samples were collected in heparinized tubes and the plasma was immediately centrifuged (10,000 rpm, 10 min, 4 °C) and then stored at −20 °C until analysis. The calibration standards and the plasma samples were extracted by protein precipitation using methanol.

The subject of series [6] is p38. As to the kind of experiment: LPS-induced p38 phosphorylation in BV2 cells (Western blot). Type of series: cell-based. To be noted: 3 μM, 1 h pretreatment, LPS 1 μg/mL 24 h. As for the experimental part:
as §2

Series [7] relates to COX-2. As to the kind of experiment: LPS-induced COX-2 expression in BV2 cells (Western blot). Type of series: cell-based. To be noted: 3 μM, 1 h pretreatment, LPS 1 μg/mL 24 h. The protocol:
as §2

Series [8] in a line: MTT cell viability assay in BV2 microglia cells. Type of series: cell-based. To be noted: mouse, mean ± SD, n = 3. The protocol:
(§3) The BV2 microglial cells were purchased from the China Center for Type Culture Collection, CCTCC (Wuhan, Hubei). BV2 microglia cells were incubated in DMEM media supplemented with 10% (v/v) FBS, 100 U/mL penicillin G and […] streptomycin at 37 °C with 5% CO2.
Cell viability assays were evaluated using a 3-(4,5-dimethylthiazol-2-yl)-2,5-diphenyltetrazolium bromide (MTT) assay. BV2 microglia cells were seeded in 96-well plates at a density of 1.6 × 10^5 cells/well in complete medium and incubated for 24 h. Then, the culture medium was sucked and discarded, and sterile PBS was added for washing, and then PBS was removed. Then the cells were treated with different concentrations of target compounds for 24 h. An amount equal to 100 μL of MTT was added to each well and the cells were further incubated for 2–4 h. An amount equal to 150 μL of DMSO was added into a 96-well plate and vibrated with micro-oscillator for 10 min. The optical density (A) was measured at […] on a microplate reader. The inhibitory rate of the various concentrations of agents in BV2 cells was calculated using the following formula:Cell viability (%) = [A492 (sample) − A492 (blank)]/[A492 (control) − A492 (blank)] × 100%
On the technique in general: Formazan colour is commonly taken as a measure of viable cells.

Series [9] deals with TNF-α. As to the kind of experiment: LPS-induced TNF-α release in BV2 cells (ELISA). In kind it is cell-based, mouse. To be noted: 3 µM, 1 h pretreatment, LPS 1 μg/mL 24 h, vs. LPS alone. The protocol: as §1
Series [10] has as its system ERK. As to the kind of experiment: LPS-induced ERK phosphorylation in BV2 cells (Western blot). In kind it is cell-based. To be noted: 3 μM, 1 h pretreatment, LPS 1 μg/mL 24 h. As for the experimental part: as §2
The subject of series [11] is LPS-induced NO release in BV2 cells. As to the kind of experiment: Inhibition of LPS-induced NO release in BV2 cells. Type of series: cell-based. To be noted: Mus musculus, BV-2; for inhibition at 3 µM: pretreated 1 h, then LPS 1 μg/mL for 24 h, BV2 cells; for IC50: BV2 cells, 0.3, 1.0, 3.0 μM, LPS 1 μg/mL 24 h, mean ± SD, n = 3, read-out: IC50 to inhibit LPS-induced NO release. The protocol: as §3
Nitrite, a stable product of nitric oxide, was used to assess NO production. To study the effects of the compounds on NO production, BV2 microglia cells in the logarithmic phase were plated at 1 × 10^5 cells/well in a 24-well microplate and incubated in DMEM medium (10% FBS) overnight. The cells were pretreated with various concentrations of the test compounds for 1 h and further co-cultured with 1 μg/mL LPS and 5% CO2 for 24 h in a 37 °C incubator; then, the supernatant was taken and stored at −20 °C for NO detection. The target compound and LPS were configured with DMEM medium (2% FBS). The determination of NO was carried out according to the instructions. Unpretreated and unstimulated BV2 microglia cells were conducted as the blank control group. The absorbance value was determined at 540 nm, and the corresponding NO content was calculated by using the standard curve. The NO inhibitory rate of the various concentrations of agents in BV2 cells was calculated as per the following formula:Inhibition rate (%) = (LPS(NO concentration) − sample(NO concentration))/(LPS(NO concentration) − negative control(NO concentration)) × 100%.

Series [12] concerns PGE-2. Briefly: LPS-induced PGE-2 release in BV2 cells (ELISA). To be noted: 3 µM, 1 h pretreatment, LPS 1 μg/mL 24 h, vs. LPS alone. In kind it is cell-based, mouse. The protocol:
as §1

With `COc1ccc(/C=C/C(=O)/C=C/CCc2ccccc2)cc1OC` [CU-19, (1E,4E)-1-(3,4-dimethoxyphenyl)-7-phenyl-1,4-heptadien-3-one], in series [1], the “Inhibition of LPS-induced IL-6 release” value is “significantly inhibited”. Besides, in series [2], the “Inhibition of LPS-induced NF-κB nuclear translocation” value is “able to inhibit NF-κB nuclear translocation”. Moreover, the “Inhibition of LPS-induced iNOS expression” value in series [3] is “significantly inhibited”. Also, the “JNK phosphorylation compared to the LPS group” value in series [4] was “significantly decreased”. For the same molecule, in series [5], the AUC(0-inf) was 2220 ng·h/mL, the AUC(0-t) was 1770 ng·h/mL, the Cmax was 3330 ± 393 ng/mL and the half-life came out at 2.25 ± 0.104 h. Further, in series [5], the MRT last was 1.02 h, the MRT inf is 2.12 h, the “Metabolites detected in plasma by HPLC” value is “no obvious metabolites” and the “Increase of T1/2 in comparison with that of CU” value came out at 4.5 fold. Further, the “p38 phosphorylation compared to the LPS group” value in [6] is reported as “significantly decreased”. In series [7], the “Inhibition of LPS-induced COX-2 expression” value was “significantly inhibited”. In series [8], this molecule came in with a viability at 24 h, 1 µM of 96.94 ± 0.03%; a viability at 24 h, 3 µM of 96.33 ± 0.02%; a viability at 24 h, 10 µM of 67.91 ± 0.37%. For the same molecule, the “Inhibition of LPS-induced TNF-α release” value in series [9] is “significantly inhibited”. The “ERK phosphorylation compared to the LPS group” value in series [10] was “significantly decreased”. In addition, in series [11], the inhibition at 3 µM stood at 50.3% and the IC50 turned out to be 1600 ± 310 nM. Also, the “Inhibition of LPS-induced PGE-2 release” value in [12] is on record as “significantly inhibited”.
Take `COc1ccc(CC/C=C/C(=O)/C=C/c2ccccc2)cc1` [CU-21, (1E,4E)-7-(4-methoxyphenyl)-1-phenyl-1,4-heptadien-3-one]: the melting point lay in the range of 58 to 60 °C. In addition, the “Inhibition of LPS-induced IL-6 release” value in [1] is given as “significantly inhibited”. In [2], the “Inhibition of LPS-induced NF-κB nuclear translocation” value is recorded as “able to inhibit NF-κB nuclear translocation”. Further, the “Inhibition of LPS-induced iNOS expression” value in series [3] is listed as “significantly inhibited”. Besides, the “JNK phosphorylation compared to the LPS group” value in [4] is listed as “significantly decreased”. For the same molecule, in series [5], the AUC(0-inf) was 3530 ng·h/mL, the AUC(0-t) is 2830 ng·h/mL, the peak level (Cmax) was 6850 ± 634 ng/mL and the half-life was 2.72 ± 0.613 h. Further, in series [5], the MRT last was 0.757 h, the MRT inf was 2.32 h, the “Metabolites detected in plasma by HPLC” value was “no obvious metabolites” and the “Increase of T1/2 in comparison with that of CU” value amounted to 5.5 fold. Also, in series [6], the “p38 phosphorylation compared to the LPS group” value is listed as “significantly decreased”. For the same molecule, the “Inhibition of LPS-induced COX-2 expression” value in [7] is given as “significantly inhibited”. Further, in [8], the viability at 24 h, 1 µM came to 96.94 ± 0.01%; the viability at 24 h, 3 µM was determined as 94.55 ± 0.09%; the viability at 24 h, 10 µM worked out at 77.89 ± 0.5%. Also, the “Inhibition of LPS-induced TNF-α release” value in [9] is reported as “significantly inhibited”. In series [10], the “ERK phosphorylation compared to the LPS group” value was “significantly decreased”. Besides, in series [11], the inhibition at 3 µM came out at 66.1% and the IC50 is 1740 ± 660 nM. The “Inhibition of LPS-induced PGE-2 release” value in [12] is given as “significantly inhibited”.

For orientation: AUC(0-inf) means total exposure, with the tail of the curve extrapolated. Read a high AUC(0-inf) as high exposure. A word on the AUC(0-t): it is exposure summed from dosing to a finite time, without extrapolation to infinity. A higher AUC(0-t) goes with high exposure. As usually defined, the Cmax is the peak of the concentration-time curve. What is called half-life is the time in which the quantity being followed falls by half. Lower therefore signals fast loss. A word on the viability: it is a read-out of living cells in per cent, often relative to untreated cells. Read a high viability as less harm to the cells. A word on the inhibition: it is the drop in the measured response relative to a control, in per cent. One may read the IC50 as the concentration that inhibits the measured activity by half. For orientation: melting point means the temperature, or range, at which the solid turns liquid.
